Reference: patent US4582821A, “Inhibition of cyclic nucleotide independent protein kinases” (E. I. Du Pont de Nemours and Company, priority 1983, dated 1986)
Square brackets hold non-standard residues; d marks the D form. Peptide text beside a SMILES is read from it. * marks the point of attachment. ξ: configuration not given here. Cbz = O=C(OCc1ccccc1)*; ξL = CC(C)CC(N)C(=O)O; CH2Cl = ClC*

What was measured:
p130^fps = target: T1, p130^fps (UniProt P00530+P03323); test: Casein phosphorylation by p130fps immunoprecipitates; assay type: biochemical, Fujinami sarcoma virus (FSV); conditions: casein-phosphorylating activity of p130fps; concentration not given
T1 construct: anti-gag serum and Staphylococcus protein A suspension (for FSV-transformed cells); viral gag-derived N-terminal portion (natural gag-fps fusion); expressed in transfected cells; immune complex with anti-gag serum and Staphylococcus protein A
Description: In a related experiment, the capacity of Boc-LeuCH2 Br to inhibit phosphorylation of casein by p130^fps was determined. These tests were conducted substantially as described above, except 1 mg/mL casein was added to assay mixtures as a substrate, and reactions were terminated by addition of 2.5 mM unlabeled ATP and immediate cooling to 0°. Phosphorylated casein was separated from immunoprecipitate suspensions by centrifugation at 3,000 xg for 3 minutes. The resulting pellets were resuspended in 70 μL of 10 mM Hepes, pH 7.5, and 20 μL aliquots were pipetted onto filter paper squares as previously described. […]

[1] = tested on: A-431 plasma membrane extracts (EGF-mediated protein phosphorylation); test: Protein phosphorylation in solubilized A-431 plasma membrane extracts, with or without EGF; assay type: biochemical, human
Description: The capacity of certain peptide halomethyl ketones to inhibit protein phosphorylation is illustrated by Examples 1-8, below, in which solubilized plasma membranes prepared from A-431 human epidermoid carcinoma cells were incubated with [γ-^32 P] ATP in the presence of EGF.
A-431 human epidermoid carcinoma cells were grown in Dulbecco's modified Eagle's medium containing 5% fetal calf serum. Plasma membranes were isolated by a method substantially similar to that described by Thom et al., Biochem J. 168:187 (1977), and kept at -70°. Solubilization of plasma membranes was performed substantially as described by Cohen et al., J. Biol. Chem. 255:4834 (1980). In this procedure, 7.5 mg/mL protein was solubilized with 5% Triton X-100 (octylphenol), 10% glycerol, and 20 mM Hepes buffer (N-2-hydroxyethylpiperazine-N^1 -2-ethanesulfonic acid), pH 7.4. This mixture was incubated for 20 minutes at about 23°, followed by centrifugation at 100,000 xg for 60 minutes.
(§1) Protein phosphorylation assays were conducted substantially as described by Carpenter et al., J. Biol. Chem. 254:4884 (1979). Each assay mixture contained, in a final volume of 70 μL: 20 mM Hepes, pH 7.4, 0.01% bovine serum albumin (BSA), 15-150 μg protein in Triton extract, 100 ng EGF, 1 mM MnCl2 and 10-20 μM [γ-^32 P] ATP (2-4 μCi). Peptide halomethyl ketones were added as solutions in ethanol; an equivalent volume of ethanol was added to controls. Assay mixtures were incubated at about 23° for ten minutes, with or without added EGF. Mixtures were then held at 0° for ten minutes before initiation of phosphorylation by addition of 15 μM γ-^32 P) ATP (2 μCi). Reactions were terminated after 3 minutes at 0° by applying an aliquot of the assay mixture to a Whatman 3MM filter paper (2×2 cm), which was then suspended in ice-cold 10% trichloroacetic acid containing 10 mM pyrophosphate. This suspension was gently shaken for a period of 1 hour, during which the trichloroacetic acid/pyrophosphate mixture was changed three times. Finally, the filter papers were dried and radioactivity measured by scintillation counting.

[2] = tested on: erythroleukemia cell line K-562; test: Tumor cell line growth inhibition, K-562; assay type: cell-based
Description: (§2) In this series of experiments, the tumor cell growth inhibitory capacity of various peptide halomethyl ketones was tested against lymphoma cell lines YAC-1 and MOLT-4, and against an erythroleukemia cell line, K-562. The lymphoma cell line YAC-1 is described by Kiessling, et al., Eur. J. Immunol. 5:112 (1975), and MOLT-4 is described by Minowada, et al., J. Natl. Cancer Inst. 49:891 (1972) and Nilsson, et al., Int. J. Cancer 15:321 (1975). The erythroleukemia cell line K-562 is described by Lozzio, et al., Leuk. Res. 3:363 (1979). In these experiments, cells were grown on standard media as 10 mL suspension cultures. Initial cell density was 10^5 cells/mL. At day 0, test compounds were introduced in ethanol; control cultures received an equal volume of ethanol. Cells were counted at the times indicated.

lymphoma cell line YAC-1 = test: Tumor cell line growth inhibition, YAC-1; assay type: cell-based
Description: as §2

[3] = tested on: lymphoma cell line MOLT-4; test: Tumor cell line growth inhibition, MOLT-4; assay type: cell-based
Description: as §2

A-431 cell EGF receptor = target: T2, A-431 cell EGF receptor (Homo sapiens, UniProt P00533); test: Protein phosphorylation of A-431 cell membrane EGF receptors (intact membranes, EGF present); assay type: biochemical; conditions: 600 nmoles/mg protein, intact A-431 membranes
T2 construct: intact A-431 cell membranes were employed, rather than solubilized extracts; endogenous in cells; host or cells: A-431 human epidermoid carcinoma cells (plasma membranes)
T2 sequence (P00533 25-1210): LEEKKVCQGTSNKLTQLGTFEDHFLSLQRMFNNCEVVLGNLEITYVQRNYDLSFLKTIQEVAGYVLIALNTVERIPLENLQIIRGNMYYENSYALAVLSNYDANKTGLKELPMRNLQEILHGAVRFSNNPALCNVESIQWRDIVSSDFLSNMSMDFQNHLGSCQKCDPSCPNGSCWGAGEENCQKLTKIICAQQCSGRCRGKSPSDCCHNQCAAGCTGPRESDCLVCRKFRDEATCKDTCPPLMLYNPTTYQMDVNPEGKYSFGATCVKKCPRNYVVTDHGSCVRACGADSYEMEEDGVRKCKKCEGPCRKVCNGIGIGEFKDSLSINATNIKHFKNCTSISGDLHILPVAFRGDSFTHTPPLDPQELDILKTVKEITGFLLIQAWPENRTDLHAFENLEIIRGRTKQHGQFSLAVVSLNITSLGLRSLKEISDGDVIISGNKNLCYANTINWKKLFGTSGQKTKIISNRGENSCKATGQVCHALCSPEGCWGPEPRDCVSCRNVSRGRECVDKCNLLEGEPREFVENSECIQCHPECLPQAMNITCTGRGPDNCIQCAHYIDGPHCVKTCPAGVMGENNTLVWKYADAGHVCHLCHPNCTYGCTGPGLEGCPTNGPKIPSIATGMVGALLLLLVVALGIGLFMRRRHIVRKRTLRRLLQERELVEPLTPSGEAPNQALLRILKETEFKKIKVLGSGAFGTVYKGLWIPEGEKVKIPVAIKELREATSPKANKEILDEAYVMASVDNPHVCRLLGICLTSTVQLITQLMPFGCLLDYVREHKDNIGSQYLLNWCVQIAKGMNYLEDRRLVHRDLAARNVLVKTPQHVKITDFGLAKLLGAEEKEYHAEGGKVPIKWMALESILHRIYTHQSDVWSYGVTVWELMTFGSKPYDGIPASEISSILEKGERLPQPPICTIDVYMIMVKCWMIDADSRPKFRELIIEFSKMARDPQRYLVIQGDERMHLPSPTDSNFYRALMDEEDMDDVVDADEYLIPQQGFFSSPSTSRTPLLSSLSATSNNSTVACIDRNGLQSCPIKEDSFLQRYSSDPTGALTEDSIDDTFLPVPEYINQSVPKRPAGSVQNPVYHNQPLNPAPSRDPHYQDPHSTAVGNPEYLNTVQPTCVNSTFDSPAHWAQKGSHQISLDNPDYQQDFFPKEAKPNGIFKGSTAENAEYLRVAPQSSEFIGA
Description: as §1
Assays were conducted substantially as described above, except intact A-431 cell membranes were employed, rather than solubilized extracts, and assay mixtures contained 1 mM ouabain. In these Examples, reactions were permitted to proceed for 6 minutes. This technique is substantially similar to that disclosed by Navarro et al., Biochemistry, 21:6138 (1982).

[4] = 400 nmol/mg protein, control 20.2
[5] = 400 nmol/mg protein, control 7.3

In the case of `CC(C)C[C@H](NC(=O)[C@H](C)NC(=O)[C@H](Cc1ccccc1)NC(=O)[C@H](Cc1ccccc1)NC(=O)OCc1ccccc1)C(=O)CCl` [Z--Phe-Phe-Ala-LeuCH2 Cl] (Cbz-FFAL-CH2Cl), the “Percent Inhibition” value (p130^fps) is reported as 11%.

`CC(C)[C@H](NC(=O)OC(C)(C)C)C(=O)CCl` [Boc-ValCH2 Cl] was tested, and the “% inhibition, EGF Added” value ([1]; 477 nmol/mg protein) was 25%, the “EGF Added (pmol 32P incorporated/min/mg protein)” value ([1]; 477 nmol/mg protein, control 96.2) was 72.2 pmol^32 P incorporated/min/mg and the “No EGF Added (pmol 32P incorporated/min/mg protein)” value ([1]; 477 nmol/mg protein, control 21.6) was 20.3 pmol^32 P incorporated/min/mg.

With `CC(C)CC(NC(=O)C(C)NC(=O)C(CCCCN)NC(=O)C(Cc1ccccc1)NC(=O)OCc1ccccc1)C(=O)CCl` (stereo not drawn) [Z--Phe-Lys-Ala-LeuCH2 Cl, Z-Phe-Lys-Ala-LeuCH2 Cl] (Cbz-FKAL-CH2Cl; configuration not given here) the “Percent Inhibition” value (p130^fps) was 11%.

With `CC(C)C[C@H](NC(=O)[C@@H]1CCCN1C(=O)CNC(=O)[C@H](Cc1ccccc1)NC(=O)OCc1ccccc1)C(=O)CCl` [Z--Phe-Gly-Pro-LeuCH2 Cl] (Cbz-FGPL-CH2Cl) the “Percent Inhibition” value (p130^fps) was 7%.

For `CC(=O)NC(Cc1ccccc1)C(=O)NC(CCC(=O)O)C(=O)NC(C)C(=O)NC(CC(C)C)C(=O)CCl` (stereo not drawn) [Ac-Phe-Glu-Ala-LeuCH2 Cl] (Ac-FEAL-CH2Cl; configuration not given here), the “Percent Inhibition” value (p130^fps) was -1%.

With `CC(C)C[C@H](NC(=O)[C@H](C)NC(=O)CNC(=O)[C@H](Cc1ccccc1)NC(=O)OCc1ccccc1)C(=O)CCl` [Z--Phe-Gly-Ala-LeuCH2 Cl, Z-Phe-Gly-Ala-LeuCH2 Cl] (Cbz-FGAL-CH2Cl) the “Percent Inhibition” value (p130^fps) was 27%.

In the case of `CC(C)CC(NC(=O)C(CC(C)C)NC(=O)CNC(=O)C(Cc1ccccc1)NC(=O)OCc1ccccc1)C(=O)CCl` (stereo not drawn) [Z--Phe-Gly-Leu-LeuCH2 Cl, Z-Phe-Gly-Leu-LeuCH2 Cl] (Cbz-FGLL-CH2Cl; configuration not given here), the “Percent Inhibition” value (p130^fps) is reported as 44%.

`CC(C)CC(NC(=O)[C@H](C)NC(=O)[C@H](CC(C)C)NC(=O)[C@H](Cc1ccccc1)NC(=O)OCc1ccccc1)C(=O)CCl` (stereo partly drawn) [Z--Phe-Leu-Ala-LeuCH2 Cl, Z-Phe-Leu-Ala-LeuCH2 Cl] (Cbz-FLA[ξL]-CH2Cl) was tested, and the “Percent Inhibition” value (p130^fps) was 36%.

With `CC(C)CC(NC(=O)C(CCCCN)NC(=O)CNC(=O)C(Cc1ccccc1)NC(=O)OCc1ccccc1)C(=O)CCl` (stereo not drawn) [Z--Phe-Gly-Lys-LeuCH2 Cl, Z-Phe-Gly-Lys-LeuCH2 Cl] (Cbz-FGKL-CH2Cl; configuration not given here) the “Percent Inhibition” value (p130^fps) was 48%.

In the case of `CC(=O)NC(Cc1ccccc1)C(=O)NCC(=O)NC(CCC(=O)O)C(=O)NC(CC(C)C)C(=O)CCl` (stereo not drawn) [Ac-Phe-Gly-Glu-LeuCH2 Cl] (Ac-FGEL-CH2Cl; configuration not given here), the “Percent Inhibition” value (p130^fps) is reported as 0%.

`CC(=O)N[C@@H](Cc1ccccc1)C(=O)NCC(=O)N[C@@H](C)C(=O)N[C@@H](CC(C)C)C(=O)CCl` [Ac-Phe-Gly-Ala-LeuCH2 Cl] (Ac-FGAL-CH2Cl) was tested, and the “% Growth Relative to Control Cultures” value ([2]; 0.4 μg/mL, day 1) was 81%, the “% Growth Relative to Control Cultures” value ([2]; 0.4 μg/mL, day 3) was 85% and the “% Growth Relative to Control Cultures” value ([2]; 0.4 μg/mL, day 7) was 84%. For the same molecule, the “% Growth Relative to Control Cultures” value ([2]; 2.0 μg/mL, day 4) was 79%, the “% Growth Relative to Control Cultures” value ([2]; 10. μg/mL, day 2) was 77% and the “% Growth Relative to Control Cultures” value ([2]; 10. μg/mL, day 3) was 87%. For the same molecule, the “% Growth Relative to Control Cultures” value ([2]; 10. μg/mL, day 7) was 47%, the “% Growth Relative to Control Cultures” value (lymphoma cell line YAC-1; 0.4 μg/mL, day 1) was 80% and the “% Growth Relative to Control Cultures” value (lymphoma cell line YAC-1; 0.4 μg/mL, day 2) was 91%. The “% Growth Relative to Control Cultures” value (lymphoma cell line YAC-1; 10. μg/mL, day 1) was 78%, the “% Growth Relative to Control Cultures” value (lymphoma cell line YAC-1; 10. μg/mL, day 2) was 59% and the “% Growth Relative to Control Cultures” value (lymphoma cell line YAC-1; 10. μg/mL, day 3) was 43%. For the same molecule, the “% Growth Relative to Control Cultures” value (lymphoma cell line YAC-1; 10. μg/mL, day 4) was 24%, the “% Growth Relative to Control Cultures” value ([3]; 0.4 μg/mL, day 1) was 50% and the “% Growth Relative to Control Cultures” value ([3]; 0.4 μg/mL, day 4) was 72%. The “% Growth Relative to Control Cultures” value ([3]; 0.4 μg/mL, day 7) was 66%, the “% Growth Relative to Control Cultures” value ([3]; 2.0 μg/mL, day 4) was 87% and the “% Growth Relative to Control Cultures” value ([3]; 10. μg/mL, day 7) was 88%. For the same molecule, the “% inhibition, EGF Added” value ([1]; 400 nmol/mg protein) was 59%, the “EGF Added (pmol 32P incorporated/min/mg protein)” value [1, 4] was 8.3 pmol^32 P incorporated/min/mg and the “% inhibition, No EGF Added” value ([1]; 400 nmol/mg protein) was 29%. For the same molecule, the “No EGF Added (pmol 32P incorporated/min/mg protein)” value [1, 5] was 5.2 pmol^32 P incorporated/min/mg.

With `C[C@H](NC(=O)OCc1ccccc1)C(=O)CCl` [Z-AlaCH2 Cl] the “% inhibition, EGF Added” value ([1]; 400 nmol/mg protein) was 71%, the “EGF Added (pmol 32P incorporated/min/mg protein)” value [1, 4] was 5.9 pmol^32 P incorporated/min/mg and the “% inhibition, No EGF Added” value ([1]; 400 nmol/mg protein) was 44%. For the same molecule, the “No EGF Added (pmol 32P incorporated/min/mg protein)” value [1, 5] was 4.1 pmol^32 P incorporated/min/mg.

For `CC(C)CC(NC(=O)C(C)NC(=O)C1CCCN1C(=O)C(Cc1ccccc1)NC(=O)OCc1ccccc1)C(=O)CCl` (stereo not drawn) [Z--Phe-Pro-Ala-LeuCH2 Cl] (Cbz-FPAL-CH2Cl; configuration not given here), the “Percent Inhibition” value (p130^fps) was 16%.

For `CC(C)C[C@H](NC(=O)[C@H](Cc1ccccc1)NC(=O)CNC(=O)[C@H](Cc1ccccc1)NC(=O)OCc1ccccc1)C(=O)CCl` [Z--Phe-Gly-Phe-LeuCH2 Cl, Z-Phe-Gly-Phe-LeuCH2 Cl] (Cbz-FGFL-CH2Cl), the “Percent Inhibition” value (p130^fps) was 34%.

With `C[C@H](NC(=O)CNC(=O)[C@H](Cc1ccccc1)NC(=O)OCc1ccccc1)C(=O)N[C@@H](Cc1ccc(O)cc1)C(=O)CCl` [Z--Phe-Gly-Ala-TyrCH2 Cl, Z-Phe-Gly-Ala-TyrCH2 Cl] (Cbz-FGAY-CH2Cl) the “% inhibition” value (A-431 cell EGF receptor) was 67%.
